Data published in patent publication US20070049564A1 (Wyeth, priority 2005, published 2007).

Assays:
Test in all cases: MIC, broth microdilution
S. pneumoniae* GC 4465 = details: Streptococcus pneumoniae
E. coli GC 2232 = details: Escherichia coli
S. pneumoniae+ GC 4465 = details: Streptococcus pneumoniae
E. faecalis GC 2267 = details: Enterococcus faecalis
E. coli GC 2234 = details: Escherichia coli
E. coli GC 2231 = details: Escherichia coli
S. epidermidis GC 4935 = details: Staphylococcus epidermidis
E. coli GC 6465 = details: Escherichia coli
E. faecalis GC 2242 = details: Enterococcus faecalis
E. coli GC 2272 = details: Escherichia coli
Experimental: Antimicrobial susceptibility testing. The in vitro activities of the antibiotics are determined by the broth microdilution method as recommended by the National Committee for Clinical Laboratory Standards (NCCLS) (1). Mueller-Hinton II broth (MHBII)(BBL Cockeysville, Md.) is the medium employed in the testing procedures. Microtiter plates containing serial dilutions of each antimicrobial agent are inoculated with each organism to yield the appropriate density (10^5 CFU/ml) in a 100 μl final volume. The plates are incubated for 18-22 hours at 35° C. in ambient air.
Representative compounds were first incubated in mouse serum for an hour prior to the in vitro testing against a panel of selected gram-positive and gram-negative bacteria strains. All compounds were also pre-incubated in water for an hour prior to testing as control. Representative compounds of Formula I were incubated in human serum prior to MIC determination.

S. aureus GC 1131 = details: Staphylococcus aureus
S. aureus GC 6467 = details: Staphylococcus aureus
P. aeruginosa GC 2214 = details: Pseudomonas aeruginosa
E. coli GC 2203 = details: Escherichia coli
S. aureus GC 2216 = details: Staphylococcus aureus
S. aureus GC 6466 = details: Staphylococcus aureus
E. coli GC 4559 = details: Escherichia coli
S. aureus GC 4536 = details: Staphylococcus aureus
E. coli GC 4560 = details: Escherichia coli
[1] = GC2232, pre-incubation in human serum
[2] = GC2232, pre-incubation in mouse serum
[3] = GC2232, pre-incubation in water
[4] = GC2267, pre-incubation in human serum
[5] = GC2267, pre-incubation in mouse serum
[6] = GC2267, pre-incubation in water
[7] = GC2234, pre-incubation in human serum
[8] = GC2234, pre-incubation in mouse serum
[9] = GC2234, pre-incubation in water
[10] = GC2231, pre-incubation in human serum
[11] = GC2231, pre-incubation in mouse serum
[12] = GC2231, pre-incubation in water
[13] = GC4935, pre-incubation in human serum
[14] = GC4935, pre-incubation in mouse serum
[15] = GC4935, pre-incubation in water
[16] = GC6465, pre-incubation in human serum
[17] = GC6465, pre-incubation in mouse serum
[18] = GC6465, pre-incubation in water
[19] = GC2242, pre-incubation in human serum
[20] = GC2242, pre-incubation in mouse serum
[21] = GC2242, pre-incubation in water
[22] = GC2272, pre-incubation in human serum
[23] = GC2272, pre-incubation in mouse serum
[24] = GC2272, pre-incubation in water
[25] = GC1131, pre-incubation in human serum
[26] = GC1131, pre-incubation in mouse serum
[27] = GC1131, pre-incubation in water
[28] = GC6467, pre-incubation in human serum
[29] = GC6467, pre-incubation in mouse serum
[30] = GC6467, pre-incubation in water
[31] = GC2214, pre-incubation in human serum
[32] = GC2214, pre-incubation in mouse serum
[33] = GC2214, pre-incubation in water
[34] = GC2203, pre-incubation in human serum
[35] = GC2203, pre-incubation in mouse serum
[36] = GC2203, pre-incubation in water
[37] = GC2216, pre-incubation in human serum
[38] = GC2216, pre-incubation in mouse serum
[39] = GC2216, pre-incubation in water
[40] = GC6466, pre-incubation in human serum
[41] = GC6466, pre-incubation in mouse serum
[42] = GC6466, pre-incubation in water
[43] = GC4559, pre-incubation in human serum
[44] = GC4559, pre-incubation in mouse serum
[45] = GC4559, pre-incubation in water
[46] = GC4536, pre-incubation in human serum
[47] = GC4536, pre-incubation in mouse serum
[48] = GC4536, pre-incubation in water
[49] = GC4560, pre-incubation in human serum
[50] = GC4560, pre-incubation in mouse serum
[51] = GC4560, pre-incubation in water

Measured: MIC

CN(C)c1cc(NC(=O)CN(C(=O)OCOC(=O)C2CCC2)C(C)(C)C)c(O)c2c1C[C@H]1C[C@H]3[C@H](N(C)C)C(O)=C(C(N)=O)C(=O)[C@@]3(O)C(O)=C1C2=O [Example 62, ({[(2-{[(5aR,6aS,7S,10aS)-9-(aminocarbonyl)-4,7-bis(dimethylamino)-1,8,10a,11-tetrahydroxy-10,12-dioxo-5,5a,6,6a,7,10,10a,12-octahydrotetracen-2-yl]amino}-2-oxoethyl)(tert-butyl)amino]carbonyl}oxy)methyl cyclobutanecarboxylate]
1 µg/mL: E. coli GC 2232; [2] | S. pneumoniae+ GC 4465; pre-incubation in mouse serum | E. faecalis GC 2267; [6] | E. coli GC 2234; [8] | E. coli GC 2272; [23] | S. aureus GC 6467; [29] | E. coli GC 2203; [35] | E. coli GC 4559; [44]
8 µg/mL: E. coli GC 2232; [3] | E. coli GC 2234; [9] | E. coli GC 2231; [12] | E. coli GC 6465; [16] | E. coli GC 2272; [24] | E. coli GC 4559; [43]
4 µg/mL: E. coli GC 2231; [10] | E. coli GC 2272; [22] | E. coli GC 2203; [34]
2 µg/mL: E. coli GC 2232; [1] | E. coli GC 2234; [7] | E. coli GC 6465; [17]
0.5 µg/mL: S. pneumoniae+ GC 4465; pre-incubation in human serum | S. pneumoniae+ GC 4465; pre-incubation in water | E. faecalis GC 2267; [4] | E. faecalis GC 2267; [5] | E. coli GC 2231; [11] | S. epidermidis GC 4935; [13] | S. epidermidis GC 4935; [14] | S. epidermidis GC 4935; [15] | E. faecalis GC 2242; [19] | E. faecalis GC 2242; [20] | E. faecalis GC 2242; [21] | S. aureus GC 1131; [25] | S. aureus GC 1131; [26] | S. aureus GC 1131; [27] | S. aureus GC 6467; [28] | S. aureus GC 6467; [30] | S. aureus GC 2216; [37] | S. aureus GC 2216; [38] | S. aureus GC 2216; [39] | S. aureus GC 6466; [40] | S. aureus GC 6466; [41] | S. aureus GC 4536; [46] | S. aureus GC 4536; [47] | S. aureus GC 4536; [48] | E. coli GC 4560; [49] | E. coli GC 4560; [51]
> 64 µg/mL: E. coli GC 6465; [18] | P. aeruginosa GC 2214; [31] | P. aeruginosa GC 2214; [33]
0.25 µg/mL: S. aureus GC 6466; [42] | E. coli GC 4560; [50]
16 µg/mL: P. aeruginosa GC 2214; [32] | E. coli GC 2203; [36] | E. coli GC 4559; [45]
0.12 µg/mL: S. pneumoniae* GC 4465; pre-incubation in human serum | S. pneumoniae* GC 4465; pre-incubation in mouse serum | S. pneumoniae* GC 4465; pre-incubation in water

CN(C)c1cc(NC(=O)CN(C(=O)OCOC(=O)CCC2CCCCC2)C(C)(C)C)c(O)c2c1C[C@H]1C[C@H]3[C@H](N(C)C)C(O)=C(C(N)=O)C(=O)[C@@]3(O)C(O)=C1C2=O [Example 63, ({[(2-{[(5aR,6aS,7S,10aS)-9-(aminocarbonyl)-4,7-bis(dimethylamino)-1,8,10a,11-tetrahydroxy-10,12-dioxo-5,5a,6,6a,7,10,10a,12-octahydrotetracen-2-yl]amino}-2-oxoethyl)(tert-butyl)amino]carbonyl}oxy)methyl 3-cyclohexylpropanoate]
0.5 µg/mL: S. pneumoniae+ GC 4465; pre-incubation in human serum | S. pneumoniae+ GC 4465; pre-incubation in mouse serum | S. pneumoniae+ GC 4465; pre-incubation in water | S. aureus GC 6466; [41] | E. coli GC 4560; [50]
> 64 µg/mL: E. coli GC 2232; [1] | E. coli GC 2232; [3] | E. coli GC 2234; [9] | E. coli GC 2231; [10] | E. coli GC 2231; [12] | E. coli GC 6465; [16] | E. coli GC 6465; [18] | E. coli GC 2272; [22] | E. coli GC 2272; [24] | P. aeruginosa GC 2214; [31] | P. aeruginosa GC 2214; [33] | E. coli GC 2203; [34] | E. coli GC 2203; [36] | E. coli GC 4559; [43] | E. coli GC 4559; [45]
64 µg/mL: E. coli GC 2234; [7]
0.12 µg/mL: S. pneumoniae* GC 4465; pre-incubation in human serum | S. pneumoniae* GC 4465; pre-incubation in mouse serum | S. pneumoniae* GC 4465; pre-incubation in water
32 µg/mL: P. aeruginosa GC 2214; [32]
4 µg/mL: S. epidermidis GC 4935; [15] | S. aureus GC 1131; [27] | S. aureus GC 6467; [28] | S. aureus GC 2216; [39] | S. aureus GC 4536; [48]
1 µg/mL: E. coli GC 2232; [2] | E. faecalis GC 2267; [5] | E. coli GC 2234; [8] | E. coli GC 2231; [11] | E. faecalis GC 2242; [19] | E. faecalis GC 2242; [20] | E. faecalis GC 2242; [21] | E. coli GC 2272; [23] | S. aureus GC 1131; [25] | S. aureus GC 1131; [26] | E. coli GC 2203; [35] | S. aureus GC 2216; [37] | S. aureus GC 2216; [38] | S. aureus GC 6466; [40] | S. aureus GC 4536; [46] | S. aureus GC 4536; [47]
2 µg/mL: E. faecalis GC 2267; [4] | S. epidermidis GC 4935; [13] | S. epidermidis GC 4935; [14] | E. coli GC 6465; [17] | S. aureus GC 6467; [29] | S. aureus GC 6466; [42] | E. coli GC 4559; [44] | E. coli GC 4560; [49]
16 µg/mL: E. faecalis GC 2267; [6] | S. aureus GC 6467; [30] | E. coli GC 4560; [51]
